In ChEMBL document CHEMBL1275380, “Studies toward the structural optimization of novel thiazolylhydrazone-based potent antitrypanosomal agents” (Bioorg Med Chem, 2010):
The source made the active and inactive calls. No cut-off for these calls is given here.

Legend:
[1] = target: Cruzipain (Trypanosoma cruzi) (UniProt P25779); test: Inhibition of Trypanosoma cruzi cruzaine in absence of 0.01% Triton X-100
Trypanosoma cruzi [2] = test: Antitrypanosomal activity against epimastigotes of Trypanosoma cruzi Y assessed as viability after 11 days by trypan blue exclusion assay; assay type: functional, organism-based; conditions: 264 h
[3] = target: Cruzipain (Trypanosoma cruzi) (UniProt P25779); test: Inhibition of Trypanosoma cruzi cruzaine in presence of 0.01% Triton X-100
Trypanosoma cruzi [4] = test: Antitrypanosomal activity against trypomastigotes of Trypanosoma cruzi Y assessed as viability after 24 hrs by trypan blue exclusion assay; assay type: functional, organism-based
[5] = Cytotoxicity against BALB/c mouse Splenocyte assessed as non-cytotoxic concentration after 24 hrs by [3H]-thymidine incorporation assay relative to control; assay type: cell-based; conditions: splenocytes, read-out: Activity
[6] = target: Cruzipain (Trypanosoma cruzi) (UniProt P25779); test: Inhibition of Trypanosoma cruzi cruzaine at 100 uM pre-incubated for 10 mins
Trypanosoma cruzi [7] = test: Antitrypanosomal activity against epimastigotes of Trypanosoma cruzi Y assessed as viability at 40 uM after 11 days by trypan blue exclusion assay; assay type: functional; conditions: 264 h
Cruzipain = Cruzipain (Trypanosoma cruzi, UniProt P25779); test: Inhibition of Trypanosoma cruzi cruzaine pre-incubated for 10 mins
Mus musculus = test: Toxicity in Swiss mouse assessed as mortality at 100 mg/kg, ip after 72 hrs; assay type: organism-based; design: dose 100 mg/kg, route intraperitoneal; conditions: in vivo
Trypanosoma cruzi [8] = test: Antitrypanosomal activity against epimastigotes of Trypanosoma cruzi Y assessed as viability at 40 uM after 7 days by trypan blue exclusion assay; assay type: functional; conditions: 168 h
Trypanosoma cruzi [9] = test: Antitrypanosomal activity against epimastigotes of Trypanosoma cruzi Y assessed as viability at 40 uM after 15 hrs by trypan blue exclusion assay; assay type: functional
[10] = target: Cruzipain (Trypanosoma cruzi) (UniProt P25779); test: Inhibition of Trypanosoma cruzi cruzaine without pre-incubation; conditions: TDE = time-dependent effect

Sequence of Cruzipain (P25779 whole entry): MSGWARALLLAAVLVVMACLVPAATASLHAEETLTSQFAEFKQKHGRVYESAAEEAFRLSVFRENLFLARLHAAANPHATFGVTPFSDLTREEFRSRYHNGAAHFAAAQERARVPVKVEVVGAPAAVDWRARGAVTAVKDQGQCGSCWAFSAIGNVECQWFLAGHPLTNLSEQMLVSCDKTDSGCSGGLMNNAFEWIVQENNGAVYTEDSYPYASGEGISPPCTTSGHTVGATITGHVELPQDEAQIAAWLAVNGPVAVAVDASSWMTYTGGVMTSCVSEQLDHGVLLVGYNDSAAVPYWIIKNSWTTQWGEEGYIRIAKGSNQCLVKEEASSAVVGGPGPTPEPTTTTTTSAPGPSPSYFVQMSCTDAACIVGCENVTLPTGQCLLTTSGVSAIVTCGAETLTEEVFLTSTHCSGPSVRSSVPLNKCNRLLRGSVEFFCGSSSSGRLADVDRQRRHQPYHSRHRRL
Sequence of Cruzipain (Trypanosoma cruzi) (P25779 123-467 limits assumed): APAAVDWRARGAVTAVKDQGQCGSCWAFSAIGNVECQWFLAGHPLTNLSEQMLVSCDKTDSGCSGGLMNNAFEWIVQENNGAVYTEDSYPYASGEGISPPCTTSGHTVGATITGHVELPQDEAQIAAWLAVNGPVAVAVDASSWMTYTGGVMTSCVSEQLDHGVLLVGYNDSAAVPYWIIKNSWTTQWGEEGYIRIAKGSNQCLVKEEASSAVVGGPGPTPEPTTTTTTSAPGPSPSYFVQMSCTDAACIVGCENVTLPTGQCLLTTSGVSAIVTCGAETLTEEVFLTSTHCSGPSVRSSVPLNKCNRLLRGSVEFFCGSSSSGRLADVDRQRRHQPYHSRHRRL

Row | inhibition [1] | IC50 (Trypanosoma cruzi [2]) [µM] | inhibition [3] | IC50 (Trypanosoma cruzi [4]) [µM] | inhibition [6] [%] | inhibition [10] | SMILES | MNTC at 24 h [5] [µg/mL] | inhibition at 40 µM (Trypanosoma cruzi [7]) [%] | IC50 (Cruzipain) [µM] | Activity (Mus musculus) | inhibition at 40 µM (Trypanosoma cruzi [8]) [%] | inhibition at 40 µM (Trypanosoma cruzi [9]) [%]
1 | Active | 3.7 | Active | 3.7 |  |  | NC(=S)N/N=C/CCc1ccccc1 | < 1 |  |  |  |  | 
2 | Active | 62.9 | Active | 148 | 31 |  | CCC1S/C(=N/N=C(\C)CSc2ccc(Cl)cc2)NC1=O (configuration not stated) | > 100 | 24 |  |  |  | 
3 | Active | 2.3 | Active | 10.1 | 8 |  | O=C1CS/C(=N/N=C/C=C/c2ccccc2)N1 | < 1 |  |  |  |  | 
4 | Active | 32.1 | Active |  | 98 |  | CC1S/C(=N/N=C/CCSc2ccc(Cl)cc2)NC1=O (configuration not stated) | > 100 | 10 | 0.2 |  |  | 
5 | Active | 7.3 | Active | 7.4 | 35 |  | NC(=S)N/N=C/C=C/c1ccccc1 | < 1 | 99 |  |  |  | 
6 | Active | 40.8 | Active | 54.6 | 11 |  | CCC1S/C(=N/N=C(\C)CSc2ccc(S)cc2)NC1=O (configuration not stated) | > 100 | 41 |  |  |  | 
7 | Active | 167 | Active | 44.2 | 5 |  | CC1S/C(=N/N=C/CSc2ccccc2)NC1=O (configuration not stated) | > 100 | 4 |  |  |  | 
8 | Active | 43.9 | Active | 82.4 | 11 |  | O=C1CS/C(=N/N=C/CSc2ccc(Cl)cc2)N1 | > 100 | 8 |  |  |  | 
9 |  |  |  |  |  |  | CC/C(=N\NC(N)=S)c1cccc(Br)c1 | 1 |  |  |  |  | 
10 |  | 15.4 |  | 11.1 | 92 | tde | CC/C(=N\N=C(\N)S)c1cccc(Br)c1 |  |  |  |  |  | 
11 |  | 8.5 |  | 39.5 | 96 | tde | C/C(=N\N=C(\N)S)c1ccc(Cl)c(Cl)c1 | 1 |  | 0.1 |  |  | 
12 |  |  |  |  |  |  | O=C(Cn1ccnc1[N+](=O)[O-])NCc1ccccc1 [BENZNIDAZOLE] | 25 | 97 |  | Non-toxic | 85 | 43
13 | Active | 45.1 | Active | 76.9 | 22 |  | CCC1S/C(=N/N=C(\C)CSc2ccc(C)cc2)NC1=O (configuration not stated) | > 100 | 40 |  |  |  | 
14 | Active | 42.9 | Active |  | 8 |  | O=C1CS/C(=N/N=C/CSc2ccc(Br)cc2)N1 | > 100 | 31.5 |  |  |  | 

Row | SMILES | inhibition [1] | IC50 (Trypanosoma cruzi [2]) [µM] | inhibition [3] | IC50 (Trypanosoma cruzi [4]) [µM] | inhibition [6] [%] | inhibition [10] | MNTC at 24 h [5] [µg/mL] | inhibition at 40 µM (Trypanosoma cruzi [7]) [%] | IC50 (Cruzipain) [µM] | Activity (Mus musculus) | inhibition at 40 µM (Trypanosoma cruzi [8]) [%] | inhibition at 40 µM (Trypanosoma cruzi [9]) [%]
15 | CCC1S/C(=N/N=C/CSc2ccc(Br)cc2)NC1=O (configuration not stated) | Active | 26.9 | Active |  | 38 |  | > 100 | 77 |  | Non-toxic | 61 | 0
16 | Cc1ccc(SC/C=N/N=C2\NC(=O)C(C)S2)cc1 (configuration not stated) | Active | 6.7 | Active | 84.8 | 80 |  | > 100 | 97 | 20.4 | Non-toxic | 97 | 85
17 | CC1S/C(=N/N=C/CCSc2ccccc2)NC1=O (configuration not stated) | Active | 2.9 | Active | 10 | 93 |  | > 100 | 100 | 0.4 | Non-toxic | 100 | 75
18 | CC1S/C(=N/N=C/CCSc2ccccc2)NC1=S (configuration not stated) | Active | 8.1 | Active | 2.3 | 92 |  | 1 |  | 0.06 | Toxic | 94 | 
19 | NC(=S)N/N=C/CSc1ccccc1 | Active | 13.4 | Active | 158 | 28 |  | 5 | 100 |  | Non-toxic |  | 
20 | Cc1ccc(SC/C=N/N=C2\NC(=S)C(C)S2)cc1 (configuration not stated) | Active | 6.1 | Active | 4.5 | 6 |  | < 1 |  |  | Toxic |  | 
